From patent publication US12594264B2, “Modulators of alpha-synuclein proteolysis and associated methods of use” (Arvinas Operations, Inc., priority 2018, dated 2026)

Legend:
[1] = target: T1, SI A53T α-synuclein protein oligomers (Homo sapiens, UniProt P37840, A53T); test: E3 ligase ligand competition experiment (Oligomer ELISA); format: cell-based; details: for Degradation activity with co-incubated excess E3 ligase ligand: 1 uM compound plus 15-fold molar excess E3 ligase ligand (VHL Ligand with 7, Cereblon Ligand with 23), FIG. 6A bars 2 and 4; for Reduction of SI A53T α-synuclein oligomers (Oligomer ELISA), compound alone: 1 uM compound, no competitor, FIG. 6A bars 1 and 3
T1 construct: expressed in transfected cells
Procedure: FIGS. 6A and 6B. α-Synuclein bifunctional degradation compound activity requires the E3 ligase activity for effective degradation. Pre-formed alpha-synuclein fibrils (α-syn PFFs) were added to TREX tetracycline inducible HEK293 cells that overexpress A53T mutant α-syn to induce detergent-insoluble oligomers as measured by Oligomer ELISA. Doxycycline induced α-syn A53T cells were treated with PFFs to produce higher order oligomeric α-syn A53T in the sarkosyl insoluble fraction and SI α-syn oligomers were detected by ELISA, as described in below. Exemplary bifunctional degradation compounds 7 and 23 at 1 uM concentration, used to generate the data shown in bars 1 and 3, reduced sarkosyl insoluble α-syn.
(§1) Trex293 (doxycycline inducible) cells stably expressing human α-SYN A53T (monoclonal) were plated in poly-d-lysine coated T-75 tissue culture flasks (4.5×10e6 cells/flask) in DMEM with 10% tet-free FBS, 10 μg/ml blasticidin, and 400 μg/ml zeocin. After an overnight incubation, the cells were induced to express α-SYN by treatment with 1 μg/ml doxycycline (Dox) and exemplary bifunctional compound. After a 24 hour dox induction, the medium on the cells was changed to Opti-MEM followed by treatment with α-SYN pre-formed fibrils** (PFFs)(5 μg/flask) pre-complexed with Lipofectamine 2000 transfection reagent for 4 hours. After PFF treatment, the medium was changed back to DMEM with the supplements described above and exemplary bifunctional compound for 48 hours.
(§2) Cell pellets were harvested from each flask using 0.25% trypsin followed by spinning at 500×g for 5 minutes. Each pellet was resuspended in 1 ml cold buffer H [Buffer H-10 mM Tris, 1 mM EGTA, 0.8M NaCl, 10% sucrose, pH7.4 containing 1× protease and phosphatase inhibitors] containing protease and phosphatase inhibitors. The resuspended pellets were incubated on ice for 20 minutes followed by centrifugation at 27,200×g for 20 minutes at 4° C. The supernatants were adjusted to 1% sarkosyl (Sigma) and 1% 2-mercaptoethanol followed by incubation for 1 hour at 37° C. on an orbital shaker set to 400 rpm. The samples were then spun at 150,000×g for 35 minutes at room temperature. The supernatant was removed and saved as the soluble fraction and the insoluble pellet was resuspended in 25 μl tris-buffered saline (TBS). Protein concentrations were determined by NanoDrop, and normalized protein concentrations were analyzed by WES capillary electrophoresis as well as an α-SYN oligomer ELISA.
Coming Costar high bind black well plates were coated with MJFR 14-6-4-2 (Abcam) at 1 μg/ml for 1 hour at 37° C. followed by washing with 1×TBS+0.1% tween-20 (TBS-T) then blocking with 3% bovine serum albumin (BSA) in TBS. […] The plate was read on a luminescence plate reader. The counts were log transformed and read off the standard curve. […]

[2] = tested on: PFF induced HEK293 TREX α-syn A53T cells; test: Cytotoxicity by visual inspection of treated cells; format: cell-based, human; details: 1 μM
Procedure: (§3) Targeted degradation of sarkosyl insoluble (SI) α-synuclein via exemplary bifunctional compounds was assessed by MJFF-14-6-4-2 conformation specific ELISA following treatment of PFF induced A53T α-synuclein overexpressing HEK293 cells with 1 μM exemplary compound compared to DMSO vehicle control. Degradation activity of the exemplary compounds of Table 2 is expressed as % DMSO control. […] However, the effect of bifunctional targeting degraders, shown in FIG. 5, required the intact E3 ligase binding domain.
as §1
To assess targeted degradation of sarkosyl insoluble α-synuclein, exemplary bifunctional compounds designed to bind to oligomeric α-synuclein were tested at 1 μM in PFF induced HEK293 TREX α-syn A53T cells.

[3] = target: T2, sarkosyl insoluble (SI) α-synuclein (human α-SYN A53T) (Homo sapiens, UniProt P37840, A53T); test: MJFF-14-6-4-2 conformation specific ELISA of sarkosyl insoluble α-synuclein after compound treatment; format: cell-based; details: 1 μM compound; protein remaining relative to DMSO control; PFF induced A53T α-synuclein overexpressing HEK293 cells; read-out: Protein Degradation at 1 μM
T2 construct: expressed in transfected cells
Procedure: as §3, §1, §2
Recombinant human α-SYN was purchased from Proteos. 1 mg aliquots were supplied at 10 mg/ml in 10 mM Tris, 50 mM NaCl, pH7.6. The aliquot was thawed on ice followed by centrifugation at 4° C. for 10 minutes at 12,000×g to pellet any insoluble material. The supernatant was removed and quantitated on a NanoDrop (A280) using Beer's Law (ε=5960 M-1 cm-1). The concentration was adjusted to 5 mg/ml in PBS followed by vortexing for 3 seconds to mix contents. The mixture was incubated in an orbital shaker set to 37° C. at 1,000 rpm for 7 days followed by aliquoting into individual use vials. Prior to addition to cells, an aliquot was thawed at room temperature, then diluted to 1 mg/ml with phosphate-buffered saline (PBS) followed by sonication for 1 minute with a probe sonicator (output 1; 90% duty cycle) in a chem hood.
Coming Costar high bind black well plates were coated with MJFR 14-6-4-2 (Abcam) at 1 μg/ml for 1 hour at 37° C. followed by washing with 1×TBS+0.1% tween-20 (TBS-T) then blocking with 3% bovine serum albumin (BSA) in TBS. After re-washing, samples were added after dilution in diluent (1% BSA/TBS-T). Non-sonicated PFF was used to generate a standard curve. The plates were incubated with sample overnight at 4° C. with shaking. The following day alkaline phosphatase (AP) conjugated MJFR 14-6-4-2 was added to the plate without washing followed by incubation at room temperature for 1 hour with shaking or rocking. The plates were then re-washed and substrate (CDP star alkaline phosphatase detection reagent) was added followed by a 30 minute incubation at room temperature. The plate was read on a luminescence plate reader. The counts were log transformed and read off the standard curve. […]

| Degradation activity with co-incubated excess E3 ligase ligand [1] | Reduction of SI A53T α-synuclein oligomers (Oligomer ELISA), compound alone [1] | remaining activity at 1 µM [3] [%] | Compound | Cytotoxicity at the concentration tested [2] |
| --- | --- | --- | --- | --- |
| effectively competed | effectively reduced | 35 to 70 | Cc1ncsc1-c1ccc([C@H](C)NC(=O)[C@@H]2C[C@@H](O)CN2C(=O)[C@@H](NC(=O)COCCOCCOc2ccc(CN3C(=O)C(=CC=Cc4ccc([N+](=O)[O-])cc4)c4ccccc43)cc2)C(C)(C)C)cc1 (single isomer, unassigned) [Exemplary Compound 7] | without any visual impact to cell health |
| effectively competed | effectively reduced | 35 to 70 | O=C1CCC(N2C(=O)c3ccc(N4CCN(CCN5CCC(OC6CN(CCCN7c8ccccc8Sc8ccccc87)C6)CC5)CC4)cc3C2=O)C(=O)N1 (stereo not shown) [Exemplary Compound 23, 5-(4-(2-(4-((1-(3-(10H-phenothiazin-10-yl)propyl)azetidin-3-yl)oxy)piperidin-1-yl)ethyl)piperazin-1-yl)-2-(2,6-dioxopiperidin-3-yl)isoindoline-1,3-dione] |  |
